In EP0429304A2, “Pyridone-carboxylic acid derivatives and their use as veterinary medicines” (SHIONOGI SEIYAKU KABUSHIKI KAISHA trading under the name of …, priority 1989, dated 1991):
Like-named read-outs stand apart in the source and are kept apart here.

Legend:
[1] = tested on: TS-resistant strain of MG; assay type: in vivo, chicken; conditions: 10-days chicken, 1.2 x 10³ CFU/fowl; for Infectious index Left air sack + / Infectious index Left air sack ++ / Infectious index Left air sack +++ / Infectious index Left air sack - / Infectious index Right air sack + / Infectious index Right air sack ++ / Infectious index Right air sack +++ / Infectious index Right air sack -: count of fowl
[2] = tested on: Hemophilus pleuropneumonia (H.pp) M-1; test: In vitro sensitivity test (agar dilution method); assay type: cell-based; conditions: 37°C, 20 hours, 10 % CO₂
[3] = tested on: Escherichia coli (E.coli) E-17, chicken-origin strain isolated from the field; test: In vitro sensitivity test (agar dilution method); assay type: cell-based; conditions: 37°C, 20 to 24 hours
Procedure, shortened: (§1)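 Bacteria were of animal origin. MS strains were grown by liquid dilution in Frey medium with 12 % pig-serum and 0.01 % βNAD at 37°C for 7 days. S.au was tested by agar dilution on Mueller Hinton agar, 37°C for 20 to 24 hours. P.pis was grown on 1.5 % NaCl heart infusion agar at 25°C for 40 to 48 hours.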

[4] = tested on: Staphylococcus aureus (S.au) 209P; test: In vitro sensitivity test (agar dilution method); assay type: cell-based; conditions: 37°C, 20 to 24 hours
Procedure, shortened: as §1

[5] = tested on: Salmonella typhimurium (S.typhi) 13311; test: In vitro sensitivity test (agar dilution method); assay type: cell-based; conditions: 37°C, 20 to 24 hours
[6] = tested on: Bordetella bronchiseptica (B.br) ABU-1; test: In vitro sensitivity test (agar dilution method); assay type: cell-based; conditions: 37°C, 20 to 24 hours
[7] = tested on: Escherichia coli (E.coli) JC-2; test: In vitro sensitivity test (agar dilution method); assay type: cell-based; conditions: 37°C, 20 to 24 hours
[8] = tested on: Hemophilus paragallinarum (H.pg) 221; test: In vitro sensitivity test (agar dilution method); assay type: cell-based; conditions: agar dilution, 37°C, 20 hours, 10 % CO₂
[9] = tested on: Hemophilus paragallinarum (H.pg) S-1; test: In vitro sensitivity test (agar dilution method); assay type: cell-based; conditions: agar dilution, 37°C, 20 hours, 10 % CO₂
[10] = tested on: Pasteurella piscicida (P.pis) No. 2; test: In vitro sensitivity test; assay type: cell-based; conditions: 25°C, 40 to 48 hours
Procedure, shortened: (§2)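 Read-out is visual growth after incubation. Conditions were 37°C for 7 days in Frey medium (12 % pig-serum, 0.01 % βNAD; liquid dilution) for MS, and 37°C for 20 to 24 hours on Mueller Hinton agar for S.au. P.pis used 25°C, 40 to 48 hours, on 1.5 % NaCl heart infusion agar.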

[11] = tested on: Streptococcus sp (Str.sp) SNO6119; test: In vitro sensitivity test; assay type: cell-based; conditions: 25°C, 40 to 48 hours
[12] = tested on: TS-resistant MG; test: Experimental MG infection to chicken, through injection; assay type: in vivo; conditions: 5 fowl tested, 10-days chicken, 3.1 x 10³ CFU/fowl; for Infectious index Left air sack + (number of fowl) / Infectious index Right air sack + (number of fowl): grade + = slight infection; for Infectious index Left air sack ++ (number of fowl) / Infectious index Right air sack ++ (number of fowl): grade ++ = considerable infection; for Infectious index Left air sack +++ (number of fowl) / Infectious index Right air sack +++ (number of fowl): grade +++ = severe infection; for Infectious index Left air sack - (number of fowl) / Infectious index Right air sack - (number of fowl): grade - = no infection
[13] = tested on: Mycoplasma hyopneumoniae (Mh) ST-11; test: In vitro sensitivity test (liquid dilution method); assay type: cell-based; conditions: 37°C, 7 days
[14] = tested on: Mycoplasma synoviae (MS) 1853; test: In vitro sensitivity test (liquid dilution method); assay type: cell-based; conditions: 37°C, 7 days
Procedure, shortened: as §2

[15] = tested on: Mycoplasma gallisepticum (MG) S6; test: In vitro sensitivity test (liquid dilution method); assay type: cell-based; conditions: 37°C, 7 days
[16] = tested on: Mycoplasma gallisepticum (MG) T-7-T, TS-resistant strain isolated from the field; test: In vitro sensitivity test (liquid dilution method); assay type: cell-based; conditions: 37°C, 7 days
[17] = tested on: Mycoplasma synoviae (MS) F10-2as; test: In vitro sensitivity test (liquid dilution method); assay type: cell-based; conditions: 37°C, 7 days
Procedure, shortened: as §2

N[C@H]1CCC[C@H]2CN(c3c(F)cc4c(=O)c(C(=O)O)cn(C5CC5)c4c3F)CC[C@H]21 (relative stereo) [I-6]
Infectious index Left air sack + ([1]; oral 3.13 mg/kg): 0
Infectious index Left air sack ++ ([1]; oral 3.13 mg/kg): 0
Infectious index Left air sack +++ ([1]; oral 3.13 mg/kg): 0
Infectious index Left air sack - ([1]; oral 3.13 mg/kg): 5
Infectious index Right air sack + ([1]; oral 3.13 mg/kg): 0
Infectious index Right air sack ++ ([1]; oral 3.13 mg/kg): 0
Infectious index Right air sack +++ ([1]; oral 3.13 mg/kg): 0
Infectious index Right air sack - ([1]; oral 3.13 mg/kg): 5
Infectious index Left air sack + ([1]; oral 6.25 mg/kg): 1
Infectious index Left air sack ++ ([1]; oral 6.25 mg/kg): 0
Infectious index Left air sack +++ ([1]; oral 6.25 mg/kg): 0
Infectious index Left air sack - ([1]; oral 6.25 mg/kg): 4
Infectious index Right air sack + ([1]; oral 6.25 mg/kg): 1
Infectious index Right air sack ++ ([1]; oral 6.25 mg/kg): 4
Infectious index Right air sack +++ ([1]; oral 6.25 mg/kg): 0
Infectious index Right air sack - ([1]; oral 6.25 mg/kg): 0
Infectious index Left air sack + ([1]; oral 12.5 mg/kg): 0
Infectious index Left air sack ++ ([1]; oral 12.5 mg/kg): 0
Infectious index Left air sack +++ ([1]; oral 12.5 mg/kg): 0
Infectious index Left air sack - ([1]; oral 12.5 mg/kg): 5
Infectious index Right air sack + ([1]; oral 12.5 mg/kg): 0
Infectious index Right air sack ++ ([1]; oral 12.5 mg/kg): 4
Infectious index Right air sack +++ ([1]; oral 12.5 mg/kg): 1
Infectious index Right air sack - ([1]; oral 12.5 mg/kg): 0
Number of fowl having air sack lesions ([1]; oral 3.13 mg/kg): 0
Number of fowl having air sack lesions ([1]; oral 6.25 mg/kg): 5
Number of fowl having air sack lesions ([1]; oral 12.5 mg/kg): 5
In vitro Sensitivity Test H.pp M-1 [2]: 0.2 µg/mL
In vitro Sensitivity Test E.coli E-17 [3]: 0.2 µg/ml
In vitro Sensitivity Test S.au 209P [4]: ≦0.0125 µg/ml
In vitro Sensitivity Test S.typhi 13311 [5]: 0.2 µg/mL
In vitro Sensitivity Test B.br ABU-1 [6]: 3.13 µg/mL
In vitro Sensitivity Test E.coli JC-2 [7]: 0.1 µg/mL
In vitro Sensitivity Test H.pg 221 [8]: >1.56 µg/mL
In vitro Sensitivity Test H.pg S-1 [9]: >1.56 µg/mL
In vitro Sensitivity Test P.pis No. 2 [10]: 0.78 µg/mL
In vitro Sensitivity Test Str.sp SNO6119 [11]: 0.39 µg/mL
Number of fowl having air sack lesions ([12]; Dose 1.56 mg/kg): 0
Infectious index Left air sack + (number of fowl) ([12]; Dose 1.56 mg/kg): 0
Infectious index Right air sack + (number of fowl) ([12]; Dose 1.56 mg/kg): 0
Infectious index Left air sack ++ (number of fowl) ([12]; Dose 1.56 mg/kg): 0
Infectious index Right air sack ++ (number of fowl) ([12]; Dose 1.56 mg/kg): 0
Infectious index Left air sack +++ (number of fowl) ([12]; Dose 1.56 mg/kg): 0
Infectious index Right air sack +++ (number of fowl) ([12]; Dose 1.56 mg/kg): 0
Infectious index Left air sack - (number of fowl) ([12]; Dose 1.56 mg/kg): 5
Infectious index Right air sack - (number of fowl) ([12]; Dose 1.56 mg/kg): 5
Number of fowl having air sack lesions ([12]; Dose 3.13 mg/kg): 0
Infectious index Left air sack + (number of fowl) ([12]; Dose 3.13 mg/kg): 0
Infectious index Right air sack + (number of fowl) ([12]; Dose 3.13 mg/kg): 0
Infectious index Left air sack ++ (number of fowl) ([12]; Dose 3.13 mg/kg): 0
Infectious index Right air sack ++ (number of fowl) ([12]; Dose 3.13 mg/kg): 0
Infectious index Left air sack +++ (number of fowl) ([12]; Dose 3.13 mg/kg): 0
Infectious index Right air sack +++ (number of fowl) ([12]; Dose 3.13 mg/kg): 0
Infectious index Left air sack - (number of fowl) ([12]; Dose 3.13 mg/kg): 5
Infectious index Right air sack - (number of fowl) ([12]; Dose 3.13 mg/kg): 0
In vitro Sensitivity Test Mh ST-11 [13]: <0.025 µg/mL
In vitro Sensitivity Test MS 1853 [14]: 0.2 µg/mL
In vitro Sensitivity Test MG S6 [15]: 0.00625 µg/mL
In vitro Sensitivity Test MG T-7-T [16]: 0.00625 µg/mL
In vitro Sensitivity Test MS F10-2as [17]: 0.2 µg/ml
